The results in this text go back to PubChem BioAssay (NCI).

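Dose response: 5 concentrations. Exposure: 48 h. Format: 96-well plates. Endpoint: linear interpolation; highest concentration if not reached. GI50 is the concentration that inhibits growth by half. TGI is the concentration that stops growth completely.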

Some test systems named below: OVCAR-4 ovarian; SF-295 CNS; SR leukemia; SF-268 CNS; NCI-H460 lung; HCC-2998 colon; A498 renal; MALME-3M melanoma; PC-3 prostate; DU-145 prostate.
Holding throughout (test): NCI-60 cell line screen, 48 h

In the case of `O=[As]c1ccc(C(=O)c2ccc(Oc3ccccc3)cc2)cc1` (stereo not drawn), the GI50 was 0.0469 µM in the experiment with OVCAR-4 ovarian; 0.15 µM in the experiment on SF-295 CNS; less than 0.0168 µM with SR leukemia; 0.0344 µM in the experiment with SF-268 CNS; 0.0439 µM with NCI-H460 lung; 0.0727 µM in the experiment on HCC-2998 colon. In addition, the GI50 with A498 renal was 0.141 µM; with MALME-3M melanoma it was 0.068 µM; in the experiment on PC-3 prostate, 0.0349 µM; with DU-145 prostate, 0.0348 µM. Also, the TGI with OVCAR-4 ovarian stood at 0.171 µM; in the experiment on SF-295 CNS, 0.327 µM; in the experiment on SR leukemia, 0.0736 µM; in the experiment on SF-268 CNS, 0.129 µM; in the experiment with NCI-H460 lung, 0.183 µM; in the experiment with HCC-2998 colon it was 0.213 µM. Further, the TGI in the experiment on A498 renal was determined as 0.295 µM; in the experiment with MALME-3M melanoma, 0.271 µM; with PC-3 prostate it was 0.142 µM; in the experiment on DU-145 prostate it was 0.123 µM.
For `OC(COc1cccc2ccccc12)CN1CCN(c2ccccc2Cl)CC1` (stereo not drawn), the GI50 in the experiment with OVCAR-4 ovarian is 12.6 µM; in the experiment on SF-295 CNS it was 11.9 µM; with SR leukemia, 13.5 µM; with SF-268 CNS it was 13.9 µM; with NCI-H460 lung, 12.8 µM; in the experiment on HCC-2998 colon, 14.8 µM. Besides, the GI50 is 12.3 µM in the experiment with A498 renal, 10.3 µM in the experiment on MALME-3M melanoma, 7.88 µM with PC-3 prostate and 14.6 µM in the experiment on DU-145 prostate. Besides, the TGI in the experiment with OVCAR-4 ovarian came out at 25.8 µM; in the experiment on SF-295 CNS it was 26.9 µM; with SR leukemia it was 40.4 µM; in the experiment with SF-268 CNS, 29.9 µM; in the experiment with NCI-H460 lung, 29 µM; in the experiment on HCC-2998 colon, 29.3 µM. The TGI with A498 renal turned out to be 24.9 µM; in the experiment on MALME-3M melanoma, 25.9 µM; in the experiment with PC-3 prostate it was 23.2 µM; with DU-145 prostate, 28.5 µM.
For the compound `COc1cc(-c2nn(-c3ccc(NC(=O)c4cc(Cl)cc(Cl)c4)cc3)cc2-c2ccncc2)ccc1Cl`, the GI50 was more than 100 µM in the experiment with OVCAR-4 ovarian; more than 100 µM with SR leukemia; more than 100 µM in the experiment on SF-268 CNS; 8.48 µM in the experiment on NCI-H460 lung; 5.88 µM in the experiment on HCC-2998 colon; more than 100 µM with A498 renal. Further, the GI50 was 42 µM in the experiment on PC-3 prostate and more than 100 µM in the experiment on DU-145 prostate. The TGI with OVCAR-4 ovarian, in the experiment on SR leukemia, in the experiment with SF-268 CNS, with NCI-H460 lung, in the experiment on HCC-2998 colon and in the experiment on A498 renal was more than 100 µM throughout. Also, the TGI in the experiment on PC-3 prostate and with DU-145 prostate was more than 100 µM throughout.
Regarding `Cc1ccc2c(c1)C(=O)c1c-2n(CCCN=[N+]=[N-])c(=O)c2cc([N+](=O)[O-])ccc12`, the GI50 in the experiment with OVCAR-4 ovarian was 14 µM; with SF-295 CNS, more than 100 µM; with SR leukemia, 8.21 µM; in the experiment on SF-268 CNS, 5.59 µM; in the experiment with NCI-H460 lung it was 21.1 µM; in the experiment on HCC-2998 colon it was more than 100 µM. The values for the GI50 in the experiment on A498 renal, in the experiment with PC-3 prostate and with DU-145 prostate were more than 100 µM, 33.4 µM and more than 100 µM, respectively. Besides, the TGI in the experiment with OVCAR-4 ovarian is 74.2 µM; in the experiment on SF-295 CNS it was more than 100 µM; in the experiment with SR leukemia, 63.1 µM; with SF-268 CNS it was more than 100 µM; with NCI-H460 lung, more than 100 µM; in the experiment with HCC-2998 colon it was more than 100 µM. The TGI in the experiment with A498 renal, in the experiment on PC-3 prostate and in the experiment on DU-145 prostate was more than 100 µM each time.
With `CO[C@H](C(=O)O)[C@@H]1Cc2cc3cc(OC4CC(OC5CC(O)C(O)C(C)O5)C(O)C(C)O4)c(C)c(O)c3c(O)c2C(=O)[C@H]1OC1CC(OC2CC(OC3CC(C)(O)C(O)C(C)O3)C(O)C(C)O2)C(O)C(C)O1` (stereo partly drawn), the GI50 was 0.607 µM with OVCAR-4 ovarian; 0.167 µM with SF-295 CNS; 0.133 µM with SR leukemia; 0.283 µM in the experiment on SF-268 CNS; 0.131 µM in the experiment with NCI-H460 lung; 0.135 µM with A498 renal. Further, the GI50 in the experiment with MALME-3M melanoma was 0.205 µM; in the experiment with PC-3 prostate, 0.348 µM; in the experiment on DU-145 prostate, 0.364 µM. In addition, the TGI was more than 32.5 µM in the experiment on OVCAR-4 ovarian; more than 32.5 µM with SF-295 CNS; 8.37 µM in the experiment on SR leukemia; more than 32.5 µM in the experiment with SF-268 CNS; more than 32.5 µM with NCI-H460 lung; 0.773 µM with A498 renal. Also, the TGI with MALME-3M melanoma is 1.4 µM; in the experiment with PC-3 prostate, more than 32.5 µM; with DU-145 prostate, more than 32.5 µM.
On to `C#Cc1cc2c(N)c(C(=O)c3cc(OC)c(OC)c(OC)c3)[nH]c2cc1OC`, for which the GI50 was 0.987 µM in the experiment with OVCAR-4 ovarian; 0.381 µM in the experiment on SR leukemia; 14.1 µM in the experiment with SF-268 CNS; 0.408 µM in the experiment on NCI-H460 lung; 42.5 µM with HCC-2998 colon; 0.487 µM in the experiment on A498 renal. Moreover, the values for the GI50 with MALME-3M melanoma, in the experiment on PC-3 prostate and in the experiment on DU-145 prostate were 0.434 µM, 0.45 µM and 1.2 µM, respectively. Moreover, the TGI was more than 100 µM in the experiment with OVCAR-4 ovarian; more than 100 µM in the experiment with SR leukemia; more than 100 µM in the experiment on SF-268 CNS; more than 100 µM with NCI-H460 lung; more than 100 µM in the experiment with HCC-2998 colon; 16.9 µM in the experiment with A498 renal. The TGI in the experiment with MALME-3M melanoma, in the experiment on PC-3 prostate and with DU-145 prostate was more than 100 µM throughout.
In the case of `O=C1c2ccn(CCCCN3CCC(O)CC3)c2C(=O)c2c1c(O)c1ccccc1c2O`, the GI50 is 17.9 µM with OVCAR-4 ovarian; 3.25 µM with SF-295 CNS; more than 100 µM with SR leukemia; 17.8 µM in the experiment with SF-268 CNS; 20.6 µM in the experiment on HCC-2998 colon; 23.7 µM in the experiment on A498 renal. For the same compound, the GI50 in the experiment on MALME-3M melanoma is 16.5 µM; in the experiment on PC-3 prostate it was 1.35 µM; in the experiment on DU-145 prostate it was 7.98 µM. The TGI was more than 64.4 µM in the experiment with OVCAR-4 ovarian; 9.69 µM in the experiment with SF-295 CNS; more than 100 µM in the experiment with SR leukemia; more than 74.3 µM with SF-268 CNS; more than 59.5 µM in the experiment on HCC-2998 colon; 55.4 µM in the experiment with A498 renal. In addition, the TGI with MALME-3M melanoma came out at 41.8 µM; in the experiment with PC-3 prostate, 3.16 µM.
Consider `CCCCOc1ccc(/C=N/Nc2cc(C)nc3ccc(Cl)cc23)cc1`, for which the GI50 was 1.56 µM with OVCAR-4 ovarian; 1.66 µM in the experiment with SF-295 CNS; 0.501 µM in the experiment with SR leukemia; 1.91 µM with HCC-2998 colon; 1.52 µM with A498 renal; 1.85 µM in the experiment on MALME-3M melanoma. The GI50 was 1.71 µM in the experiment with PC-3 prostate and 1.82 µM with DU-145 prostate. Besides, the TGI with OVCAR-4 ovarian was 3 µM; with SF-295 CNS, 3.1 µM; with SR leukemia, 3.13 µM; with HCC-2998 colon it was 3.38 µM; with A498 renal, 2.93 µM; in the experiment on MALME-3M melanoma, 3.38 µM. The TGI in the experiment on PC-3 prostate was 3.35 µM; in the experiment on DU-145 prostate, 3.71 µM.
